In the assay the target is Btk (Homo sapiens, UniProt Q06187). The experiment in a line: Btk TR-FRET kinase inhibition assay. In kind it is biochemical. As to conditions: pH 7.4, ATP at the Km for the kinase, 1 μM peptide substrate, [Btk]total=0.5 nM, read-out: Btk-TRFRET (Ki). The procedure: Suitable in vitro assays for measuring kinase activity and the inhibition thereof by compounds are known (e.g., see Kuzmic et al. Anal. Biochem. 2000, 286, 45-50).
The following protocol represents an assay for determination of inhibition of kinases under physiological conditions (pH 7.4). Kinase activity was determined using a time-resolved fluorescence resonance energy transfer (TR-FRET) methodology. Measurements were performed in a reaction volume of 50 μL using 96-well assay plates. Kinase enzyme, inhibitor, ATP (at the Km for the kinase), and 1 μM peptide substrate (Biotin-AVLESEEELYSSARQ-NH2) were incubated in a reaction buffer composed of 20 mM Tris, 50 mM NaCl, MgCl2 (5-25 mM depending on the kinase), 1 mM DTT, 0.1 mM EDTA, 0.01% bovine serum albumin, 0.005% Tween-20, and 10% DMSO at pH 7.4 for one hour. The reaction was quenched by the addition of 1.2 equivalents of EDTA (relative to Mg^2+) in 25 μL of 1× Lance buffer (Perkin-Elmer). Streptavidin-APC (Perkin-Elmer) and Eu-labeled p-Tyr100 antibody (Perkin-Elmer) in 1× Lance buffer were added in a 25 μL volume to give final concentrations of 100 nM and 2.5 nM, respectively, and the mixture was allowed to incubate for one hour. The TR-FRET signal was measured on a multimode plate reader with an excitation wavelength of 330 nm and detection wavelengths of 615 nm and 665 nm. Activity was determined by the ratio of the fluorescence at 665 nm to that at 615 nm. For each compound, enzyme activity was measured at various concentrations of compound. Negative control reactions were performed in the absence of inhibitor in replicates of six, and two no-enzyme controls were used to determine baseline fluorescence levels. Inhibition constants were obtained using the program BatchKi (Kuzmic et al. Anal. Biochem. 2000, 286, 45-50). IC50s were obtained according to this equation: IC50={Ki(app)/(1+[ATP]/Km^ATP)}+[E]total/2; for all kinases, [ATP]=Km^ATP, [Btk]total=0.5 nM and [Lck]total=6 nM.

pKi: −log10 of the molar value.

Sequence of Btk (Q06187 whole entry): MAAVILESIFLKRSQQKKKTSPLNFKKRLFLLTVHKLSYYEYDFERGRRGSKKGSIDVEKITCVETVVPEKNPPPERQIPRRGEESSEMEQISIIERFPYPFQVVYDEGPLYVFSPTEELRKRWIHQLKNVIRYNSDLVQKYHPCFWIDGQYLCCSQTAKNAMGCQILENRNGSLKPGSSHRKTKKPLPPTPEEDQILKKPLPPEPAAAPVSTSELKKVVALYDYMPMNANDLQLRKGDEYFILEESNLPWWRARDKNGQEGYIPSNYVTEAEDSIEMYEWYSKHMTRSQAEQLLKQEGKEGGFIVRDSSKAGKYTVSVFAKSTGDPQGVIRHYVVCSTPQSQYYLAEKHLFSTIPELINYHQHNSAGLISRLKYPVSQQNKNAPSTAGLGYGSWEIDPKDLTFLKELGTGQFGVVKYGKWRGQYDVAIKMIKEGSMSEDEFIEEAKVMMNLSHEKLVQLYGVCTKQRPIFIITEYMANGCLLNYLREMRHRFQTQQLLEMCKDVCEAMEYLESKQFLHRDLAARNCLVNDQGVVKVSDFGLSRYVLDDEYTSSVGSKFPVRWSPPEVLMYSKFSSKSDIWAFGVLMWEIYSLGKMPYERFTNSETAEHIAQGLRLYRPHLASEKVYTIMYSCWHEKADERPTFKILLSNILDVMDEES

One may read the pKi as the Ki on a negative log10 scale, so that one unit is a factor of ten. With `Cc1cc(F)ccc1Nc1nc2ccc3c(C)c(C=CCN4CCN(c5ccncc5)CC4)[nH]c(=O)c3c2n1C` [Compound 23, 2-(4-fluoro-2-methylphenylamino)-1,6-dimethyl-7-[3-(N-(pyridin-4-yl)-piperazin-1-yl)-propenyl]-1,8-dihydro-imidazo[4,5-h]isoquinolin-9-one], the negative logarithm of the Ki (pKi) is more than 7.00. For `Cc1cc(F)ccc1Nc1nc2ccc3c(C)c(/C=C/CN4CCN(S(C)(=O)=O)CC4)[nH]c(=O)c3c2n1C` [Compound 24, 2-(4-fluoro-2-methylphenylamino)-1,6-dimethyl-7-[3-(N-methylsulfonylpiperazin-1-yl)-propenyl]-1,8-dihydro-imidazo[4,5-h]isoquinolin-9-one] the value was more than 7.00; for `Cc1cc(F)ccc1Nc1nc2ccc3c(C)c(C=CCN4CCN(c5ccccn5)CC4)[nH]c(=O)c3c2n1C` [Compound 26, 2-(4-fluoro-2-methylphenylamino)-1,6-dimethyl-7-[3-(N-(pyridin-2-yl)-piperazin-1-yl)-propenyl]-1,8-dihydro-imidazo[4,5-h]isoquinolin-9-one], more than 7.00; for `Cc1cc(F)ccc1Nc1nc2ccc3c(C)c(C=CCN4CCN(c5ncccn5)CC4)[nH]c(=O)c3c2n1C` [Compound 27, 2-(4-fluoro-2-methylphenylamino)-1,6-dimethyl-7-[3-(N-(pyrimidin-2-yl)-piperazin-1-yl)-propenyl]-1,8-dihydro-imidazo[4,5-h]isoquinolin-9-one], more than 7.00. For `Cc1cc(F)ccc1Nc1nc2ccc3c(C)c(C=CCN4CCN(Cc5c(Cl)cccc5Cl)CC4)[nH]c(=O)c3c2n1C` [Compound 28, 2-(4-fluoro-2-methylphenylamino)-1,6-dimethyl-7-[3-(N-(2,6-dichlorophenylmethyl)-piperazin-1-yl)-propenyl]-1,8-dihydro-imidazo[4,5-h]isoquinolin-9-one] the value was more than 7.00. For `Cc1cc(F)ccc1Nc1nc2ccc3c(C)c(C=CCN4CCN(S(=O)(=O)c5ccccc5)CC4)[nH]c(=O)c3c2n1C` [Compound 29, 2-(4-fluoro-2-methylphenylamino)-1,6-dimethyl-7-[3-(N-phenylsulfonylpiperazin-1-yl)-propenyl]-1,8-dihydro-imidazo[4,5-h]isoquinolin-9-one] the value was more than 7.00. In the case of `Cc1cc(F)ccc1Nc1nc2ccc3c(C)c(/C=C/CN4CCN(c5ccc(F)cc5)CC4)[nH]c(=O)c3c2n1C` [Compound 30, 2-(4-fluoro-2-methylphenylamino)-1,6-dimethyl-7-[3-(N-(4-fluorophenyl)-piperazin-1-yl)-propenyl]-1,8-dihydro-imidazo[4,5-h]isoquinolin-9-one], the pKi was more than 7.00. For `Cc1cc(F)ccc1Nc1nc2ccc3c(C)c(C=CCN4CCN(C(=O)OC(C)(C)C)CC4)[nH]c(=O)c3c2n1C` [Compound 31, 2-(4-fluoro-2-methylphenylamino)-1,6-dimethyl-7-[3-(N-tert-butyloxycarbonylpiperazin-1-yl)-propenyl]-1,8-dihydro-imidazo[4,5-h]isoquinolin-9-one] the value was more than 7.00.

Take `Cc1cc(F)ccc1Nc1nc2ccc3c(C)c(C=CCN4CCN(S(=O)(=O)N(C)C)CC4)[nH]c(=O)c3c2n1C` [Compound 32, 2-(4-fluoro-2-methylphenylamino)-1,6-dimethyl-7-[3-(N—(N,N-dimethylaminosulfonyl)-piperazin-1-yl)-propenyl]-1,8-dihydro-imidazo[4,5-h]isoquinolin-9-one]: the pKi was more than 7.00. For `CCC(=O)N1CCN(CC=Cc2[nH]c(=O)c3c(ccc4nc(Nc5ccc(F)cc5C)n(C)c43)c2C)CC1` [Compound 33, 2-(4-fluoro-2-methylphenylamino)-1,6-dimethyl-7-[3-(N-ethylcarbonylpiperazin-1-yl)-propenyl]-1,8-dihydro-imidazo[4,5-h]isoquinolin-9-one] the value was more than 7.00. For `Cc1cc(F)ccc1Nc1nc2ccc3c(C)c(C=CCN4CCN(S(=O)(=O)C(C)C)CC4)[nH]c(=O)c3c2n1C` [Compound 34, 2-(4-fluoro-2-methylphenylamino)-1,6-dimethyl-7-[3-(N-(isopropylsulfonyl)-piperazin-1-yl)-propenyl]-1,8-dihydro-imidazo[4,5-h]isoquinolin-9-one] the value was more than 7.00. For `CCS(=O)(=O)N1CCN(CC=Cc2[nH]c(=O)c3c(ccc4nc(Nc5ccc(F)cc5C)n(C)c43)c2C)CC1` [Compound 35, 2-(4-fluoro-2-methylphenylamino)-1,6-dimethyl-7-[3-(N-(ethylsulfonyl)-piperazin-1-yl)-propenyl]-1,8-dihydro-imidazo[4,5-h]isoquinolin-9-one] the value was more than 7.00; for `Cc1cc(F)ccc1Nc1nc2ccc3c(C)c(C=CCN4CCN(C(=O)C(C)C)CC4)[nH]c(=O)c3c2n1C` [Compound 36, 2-(4-fluoro-2-methylphenylamino)-1,6-dimethyl-7-[3-(N-isopropylcarbonylpiperazin-1-yl)-propenyl]-1,8-dihydro-imidazo[4,5-h]isoquinolin-9-one], more than 7.00.

For the compound `Cc1c(C=CS(=O)(=O)c2ccccc2)[nH]c(=O)c2c1ccc1nc(Nc3c(Cl)cccc3Cl)n(C)c12` [Compound 37, 2-(2,6-dichlorophenylamino)-1,6-dimethyl-7-[2-(phenylsulfonyl)-ethenyl]-1,8-dihydro-imidazo[4,5-h]isoquinolin-9-one], the pKi was more than 7.00. On to `Cc1c(C(O)C(F)(F)c2cn(Cc3ccccc3)nn2)[nH]c(=O)c2c1ccc1nc(Nc3c(Cl)cccc3Cl)n(C)c12` (centres unmarked) [Compound 40, 2-(2,6-dichlorophenylamino)-1,6-dimethyl-7-[2,2-difluoro-1-hydroxy-2-(N-phenylmethyl-[1,2,3]triazol-4-yl)-ethyl]-1,8-dihydro-imidazo[4,5-h]isoquinolin-9-one], for which the negative-log Ki (pKi) was less than 6.00. For `Cc1c(C(O)C#Cc2ccccc2)[nH]c(=O)c2c1ccc1nc(Nc3c(Cl)cccc3Cl)n(C)c12` (centres unmarked) [Compound 41, 2-(2,6-dichlorophenylamino)-1,6-dimethyl-7-(1-hydroxy-3-phenylprop-2-yn-1-yl)-1,8-dihydro-imidazo[4,5-h]isoquinolin-9-one] the value was 6.00 to 7.00; for `C#CCN(C)CC=Cc1[nH]c(=O)c2c(ccc3nc(Nc4c(Cl)cccc4Cl)n(C)c32)c1C` [Compound 42, 2-(2,6-dichlorophenylamino)-1,6-dimethyl-7-[3-(N-methyl-N-(prop-2-ynyl)amino)prop-1-enyl]-1,8-dihydro-imidazo[4,5-h]isoquinolin-9-one], more than 7.00.

As to `C#CCN(C)CC=Cc1[nH]c(=O)c2c(ccc3nc(Nc4ccc(F)cc4C)n(C)c32)c1C` [Compound 43, 2-(4-fluoro-2-methylphenylamino)-1,6-dimethyl-7-[3-(N-methyl-N-(prop-2-ynyl)amino)prop-1-enyl]-1,8-dihydro-imidazo[4,5-h]isoquinolin-9-one], the pKi was more than 7.00. For `Cc1c(/C=N/O)[nH]c(=O)c2c1ccc1nc(Nc3c(Cl)cccc3Cl)n(C)c12` [Compound 44, 2-(2,6-dichlorophenylamino)-1,6-dimethyl-9-oxo-8,9-dihydro-1H-imidazo[4,5-h]isoquinoline-7-carbaldehyde oxime] the value was more than 7.00. For `Cc1c(C=NNC(=O)c2ccccc2)[nH]c(=O)c2c1ccc1nc(Nc3c(Cl)cccc3Cl)n(C)c12` [Compound 45, benzoic acid [2-(2,6-dichlorophenylamino)-1,6-dimethyl-9-oxo-8,9-dihydro-1H-imidazo[4,5-h]isoquinolin-7-ylmethylene]-hydrazide] the value was 6.00 to 7.00; for `Cc1c(C=NNC(=O)c2ccc(N(C)C)cc2)[nH]c(=O)c2c1ccc1nc(Nc3c(Cl)cccc3Cl)n(C)c12` [Compound 46, 4-(N,N-dimethylamino)-benzoic acid [2-(2,6-dichlorophenylamino)-1,6-dimethyl-9-oxo-8,9-dihydro-1H-imidazo[4,5-h]isoquinolin-7-ylmethylene]-hydrazide], less than 6.00. For `Cc1c(C=NNC(=O)c2ccccn2)[nH]c(=O)c2c1ccc1nc(Nc3c(Cl)cccc3Cl)n(C)c12` [Compound 47, pyridine-2-carboxylic acid [2-(2,6-dichlorophenylamino)-1,6-dimethyl-9-oxo-8,9-dihydro-1H-imidazo[4,5-h]isoquinolin-7-ylmethylene]-hydrazide] the value was 6.00 to 7.00; for `Cc1c(C=NNC(=O)c2cccnc2)[nH]c(=O)c2c1ccc1nc(Nc3c(Cl)cccc3Cl)n(C)c12` [Compound 48, pyridine-3-carboxylic acid [2-(2,6-dichlorophenylamino)-1,6-dimethyl-9-oxo-8,9-dihydro-1H-imidazo[4,5-h]isoquinolin-7-ylmethylene]-hydrazide], 6.00 to 7.00.
